# Measurements reported in patent publication US12624034B2, “Non-covalent modifiers of AKT1 and uses thereof” (Terremoto Biosciences, Inc., priority 2023, dated 2026).
# Where two headings read alike, the source gives them in different places.
# Tests used:
# AKT2 = target: T1, AKT2 (Homo sapiens, UniProt P31751); experiment: Live cell AKT2 target engagement by NanoBRET competitive probe displacement in HEK293 cells; format: binding; conditions: 2 h at 37° C., read-out: AKT2 IC50
# T1 construct: expressed in transfected cells; host or cells: HEK293
# T1 sequence (P31751 whole entry): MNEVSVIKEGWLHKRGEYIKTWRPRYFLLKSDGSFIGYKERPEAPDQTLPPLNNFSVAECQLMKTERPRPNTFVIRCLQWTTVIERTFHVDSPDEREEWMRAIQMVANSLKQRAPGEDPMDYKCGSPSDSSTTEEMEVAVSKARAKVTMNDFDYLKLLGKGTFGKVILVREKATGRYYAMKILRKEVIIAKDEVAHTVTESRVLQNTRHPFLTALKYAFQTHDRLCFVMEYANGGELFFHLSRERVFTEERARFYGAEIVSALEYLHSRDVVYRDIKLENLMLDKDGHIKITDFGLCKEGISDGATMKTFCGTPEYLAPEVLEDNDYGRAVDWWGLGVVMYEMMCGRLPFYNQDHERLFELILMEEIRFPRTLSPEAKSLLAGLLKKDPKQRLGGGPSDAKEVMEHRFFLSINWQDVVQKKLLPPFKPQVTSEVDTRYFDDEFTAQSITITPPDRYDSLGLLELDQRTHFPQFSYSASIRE
# Protocol: (§1) Determining live cell AKT1 E17K, AKT1 WT, and AKT2 target engagement by NanoBRET competitive probe displacement. […] Briefly, HEK293 cells were transfected with plasmids encoding kinase-NanoLuciferase fusion proteins overnight. Cells were then treated with serial dilutions of compound and an ˜EC50 concentration of fluorescently-tagged ATP-competitive tracer (Promega). After incubation for 2 h at 37° C., luciferase substrate and extracellular luciferase inhibitor were added to all wells, and luminescent intensity at 460 nm and 600 nm were measured on a multimode plate-reader. The ratio of E600/E460 was calculated to give the tracer engagement signal (BRET). IC50 values were calculated by fitting BRET values to a log(inhibitor) vs. response Hill equation.
# AKT1 WT = target: T2, AKT1 WT (Homo sapiens, UniProt P31749); experiment: Live cell AKT1 WT target engagement by NanoBRET competitive probe displacement in HEK293 cells; format: binding; conditions: 2 h at 37° C., read-out: AKT1 WT IC50
# T2 construct: expressed in transfected cells; host or cells: HEK293
# T2 sequence (P31749 whole entry): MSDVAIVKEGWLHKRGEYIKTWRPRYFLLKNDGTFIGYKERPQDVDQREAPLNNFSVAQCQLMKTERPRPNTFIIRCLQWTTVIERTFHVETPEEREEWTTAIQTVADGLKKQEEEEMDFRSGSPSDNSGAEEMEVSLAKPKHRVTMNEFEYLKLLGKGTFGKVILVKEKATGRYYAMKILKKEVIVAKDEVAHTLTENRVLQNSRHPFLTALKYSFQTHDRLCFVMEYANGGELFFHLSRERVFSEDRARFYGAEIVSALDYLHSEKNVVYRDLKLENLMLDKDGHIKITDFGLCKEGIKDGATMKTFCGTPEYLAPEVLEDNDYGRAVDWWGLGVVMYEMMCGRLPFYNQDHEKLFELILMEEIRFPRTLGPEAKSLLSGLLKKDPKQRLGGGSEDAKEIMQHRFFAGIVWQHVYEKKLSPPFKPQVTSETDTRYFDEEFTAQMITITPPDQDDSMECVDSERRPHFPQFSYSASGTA
# Protocol: as §1
# [1] = NanoBRET competitive probe displacement, live HEK293 cells
# [2] = NanoBRET live cell target engagement, HEK293 cells
SMILES,IC50 (AKT2; [1]) [nM],IC50 (AKT1 WT; [1]) [nM],IC50 (AKT2; [2]) [nM],IC50 (AKT1 WT; [2]) [nM]
Nc1ncccc1-c1nc2ccc(-n3ccc(Oc4ccccn4)n3)nc2n1-c1ccc2c(c1)CC[C@@H]2NC1CCN(C(=O)C2CC2)CC1 [Compound 574],2420,52.4,,
Nc1ncccc1-c1nc2ccc(-n3cccn3)nc2n1-c1ccc2c(c1)CC[C@@H]2NC1Cc2cccnc2C1 (stereo partly drawn) [Compound 531],1280,50.6,,
Nc1ncccc1-c1nc2ccc(-n3nccn3)nc2n1-c1ccc2c(c1)CC[C@@H]2NC(=O)c1cc(F)c2[nH]ncc2c1 [Compound 383],,,214,12.8
"Nc1ncccc1-c1nc2ccc(-n3cccn3)nc2n1-c1ccc2c(c1)CC[C@@H]2n1cnnc1 [Compound 248, (S)-3-(3-(1-(4H-1,2,4-triazol-4-yl)-2,3-dihydro-1H-inden-5-yl)-5-(1H-pyrazol-1-yl)-3H-imidazo[4,5-b]pyridin-2-yl)pyridin-2-amine]",,,107,20.2
Nc1ncccc1-c1nc2ccc(-n3nccn3)nc2n1-c1ccc2c(c1)CC[C@@H]2NC(=O)c1cnc(C(F)F)o1 [Compound 538],2910,25.1,,
"Nc1ncccc1-c1nc2ccc(-n3cccn3)nc2n1-c1ccc2c(c1)CC[C@@H]2n1ccnc1 [Compound 273, (S)-3-(3-(1-(1H-imidazol-1-yl)-2,3-dihydro-1H-inden-5-yl)-5-(1H-pyrazol-1-yl)-3H-imidazo[4,5-b]pyridin-2-yl)pyridin-2-amine]",,,165,11.6
Nc1ncccc1-c1nc2ccc(-n3ncc(C4CC4)n3)nc2n1-c1ccc2c(c1)CC[C@@H]2NC(=O)c1cnc(C(F)F)s1 [Compound 588],764,27,,
N[C@H]1CCc2cc(-n3c(-c4ccccc4F)nc4ccc(-n5cccn5)nc43)ccc21 [Compound 527],1150,19.5,,
Cc1ncccc1C(=O)N[C@H]1CCc2cc(-n3c(-c4cccnc4N)nc4c(C(F)F)cc(-n5cccn5)nc43)ccc21 [Compound 213],,,60.6,13.8
Cc1ccc(C(=O)N[C@H]2CCc3cc(-n4c(-c5cccnc5N)nc5ccc(-c6ncco6)nc54)ccc32)cn1 [Compound 223],,,586,38.7
Nc1ncccc1-c1nc2ccc(-n3cccn3)nc2n1-c1ccc2c(c1)CC[C@@H]2NC1CCc2nc(C(F)F)sc21 (stereo partly drawn) [Compound 601],2500,102,,
COc1nccc2c1CCC2N[C@H]1CCc2cc(-n3c(-c4cccnc4N)nc4ccc(-n5cccn5)nc43)ccc21 (stereo partly drawn) [Compound 508],627,75.9,,
Cc1ncc(C(=O)N[C@H]2CCc3cc(-n4c(-c5cccnc5N)nc5ccc(-n6nccn6)nc54)ccc32)c(C)n1 [Compound 92],,,1140,42.8
Cc1nccnc1C(=O)N[C@H]1CCc2cc(-n3c(-c4cccnc4N)nc4ccc(-c5cnn(C)n5)nc43)ccc21 [Compound 271],,,> 10000,285
Cc1ncccc1C(=O)N[C@H]1CCc2cc(-n3c(-c4cccnc4N)nc4ccc(C5CC5)nc43)ccc21 [Compound 129],,,> 10000,111
Nc1ncccc1-c1nc2ccc(C#C[C@@H]3CCO3)nc2n1-c1ccc2c(c1)CC[C@@H]2NC(=O)c1ccc(C(F)F)nc1 [Compound 454],> 10000,37.5,,
"Nc1ncccc1-c1nc2ccc(-n3cccn3)nc2n1-c1ccc2c(c1)CC[C@@H]2NC1CCC1 [Compound 88, (S)-3-(3-(1-(cyclobutylamino)-2,3-dihydro-1H-inden-5-yl)-5-(1H-pyrazol-1-yl)-3H-imidazo[4,5-b]pyridin-2-yl)pyridin-2-amine]",,,1810,155
COc1cc2c(cn1)CCC2N[C@H]1CCc2cc(-n3c(-c4cccnc4N)nc4ccc(-n5cccn5)nc43)ccc21 (stereo partly drawn) [Compound 510],262,14.6,,
CN(C)C(=O)c1ccn(-c2ccc3nc(-c4cccnc4N)n(-c4ccc5c(c4)CC[C@@H]5NC4CCN(C(=O)C5CC5)CC4)c3n2)n1 [Compound 591],962,25.2,,
Cn1ncc(-c2ccc3nc(-c4cccnc4N)n(-c4ccc5c(c4)CC[C@@H]5n4ccnn4)c3n2)n1 [Compound 247],,,1570,60.4
Nc1ncccc1-c1nc2ccc(-n3cccn3)nc2n1-c1ccc2c(c1)CC[C@@H]2NC1CCN(C(=O)[C@H]2C[C@@H]2F)CC1 [Compound 479],> 10000,89.3,,
CC(=O)N1CCC(N[C@H]2CCc3cc(-n4c(-c5cccnc5N)nc5ccc(-n6cccn6)nc54)ccc32)CC1 [Compound 109],,,5830,257
COc1nccc(C(=O)N[C@H]2CCc3cc(-n4c(-c5cccnc5N)nc5ccc(-n6nccn6)nc54)ccc32)c1C [Compound 380],,,312,13.9

# Second part, the compound after the results:
IC50 (AKT2; [1]) [nM],IC50 (AKT1 WT; [1]) [nM],IC50 (AKT2; [2]) [nM],IC50 (AKT1 WT; [2]) [nM],SMILES
,,42.3,6.71,Nc1ncccc1-c1nc2ccc(-n3cccn3)nc2n1-c1ccc2c(c1)CC[C@@H]2NC(=O)c1ccc2[nH]ncc2c1 [Compound 193]
,,4220,163,Nc1ncccc1-c1nc2ccc(-n3cccn3)nc2n1-c1ccc2c(c1)CC[C@@H]2NC(=O)c1ccc(O)nc1 [Compound 297]
,,81.3,5.59,Nc1ncccc1-c1nc2ccc(-n3cccn3)nc2n1-c1ccc2c(c1)CC[C@@H]2NC(=O)c1ccnc(F)c1 [Compound 295]
,,5170,126,CN[C@H]1CCc2cc(-n3c(-c4cccnc4N)nc4ccc(-n5cccn5)nc43)ccc21 [Compound 339]
,,521,40.5,COc1ncncc1C(=O)N[C@H]1CCc2cc(-n3c(-c4cccnc4N)nc4ccc(-n5cccn5)nc43)ccc21 [Compound 157]
,,3230,66.2,Cc1nccnc1C(=O)N[C@H]1CCc2cc(-n3c(-c4cccnc4N)nc4ccc(-n5cccn5)nc43)ccc21 [Compound 118]
,,72.4,9.31,CC(=O)Nc1ccc(C(=O)N[C@H]2CCc3cc(-n4c(-c5cccnc5N)nc5ccc(-n6cccn6)nc54)ccc32)cc1 [Compound 196]
2490,83.5,,,Cc1ccc(C(=O)N[C@H]2CCc3cc(-n4c(-c5cccnc5N)nc5ccc(-n6cnc(C(F)F)n6)nc54)ccc32)cn1 [Compound 430]
,,78.6,9.23,Nc1ncccc1-c1nc2ccc(-n3cccn3)nc2n1-c1ccc2c(c1)CC[C@@H]2NC(=O)c1ccc2[nH]c(=O)oc2c1 [Compound 191]
,,8.02,11.9,Cc1cc(-n2cccn2)nc2c1nc(-c1cccnc1N)n2-c1ccc2c(c1)CC[C@@H]2NC(=O)c1ccc(C(F)F)nc1 [Compound 101]
,,122,25.5,Nc1ncccc1-c1nc2ccc(-n3cccn3)nc2n1-c1ccc2c(c1)CC[C@@H]2NC(=O)c1ccc2[nH]nnc2c1 [Compound 190]
,,31.5,5.88,COc1cccc(C(=O)N[C@H]2CCc3cc(-n4c(-c5cccnc5N)nc5ccc(-n6cccn6)nc54)ccc32)c1 [Compound 335]
,,68.2,13.6,Cn1c(=O)[nH]c2ccc(C(=O)N[C@H]3CCc4cc(-n5c(-c6cccnc6N)nc6ccc(-n7cccn7)nc65)ccc43)cc21 [Compound 230]
,,59.3,5.82,Nc1ncccc1-c1nc2ccc(-n3cccn3)nc2n1-c1ccc2c(c1)CC[C@@H]2NC(=O)c1cccc(CO)c1 [Compound 240]
,,30.4,3.42,Nc1ncccc1-c1nc2ccc(-n3cccn3)nc2n1-c1ccc2c(c1)CC[C@@H]2NC(=O)c1ccn2ccnc2c1 [Compound 255]
,,> 10000,> 1000,Cc1ccc(C(=O)N[C@H]2CC(F)(F)c3cc(-n4c(-c5cccnc5N)nc5ccc(-n6cccn6)nc54)ccc32)cn1 [Compound 299]
,,660,56.2,Nc1ncccc1-c1nc2ccc(-n3cccn3)nc2n1-c1ccc2c(c1)CC[C@@H]2NC(=O)c1cnc(O)c(F)c1 [Compound 296]
,,1780,121,Cn1ccc(CN[C@H]2CCc3cc(-n4c(-c5cccnc5N)nc5ccc(-n6cccn6)nc54)ccc32)n1 [Compound 206]
,,28.1,7.29,Nc1ncccc1-c1nc2ccc(-n3cccn3)nc2n1-c1ccc2c(c1)CC[C@@H]2NC(=O)c1ccc2ncnn2c1 [Compound 237]
,,52.6,13.2,Nc1ncccc1-c1nc2ccc(-n3cccn3)nc2n1-c1ccc2c(c1)CC[C@@H]2NC(=O)c1ccc(CF)nc1 [Compound 98]
,,114,9.84,"N#Cc1cc(-n2cccn2)nc2c1nc(-c1cccnc1N)n2-c1ccc2c(c1)CC[C@@H]2NC(=O)c1ccc(C(F)F)nc1 [Compound 123, (S)—N-(5-(2-(2-aminopyridin-3-yl)-7-cyano-5-(1H-pyrazol-1-yl)-3H-imidazo[4,5-b]pyridin-3-yl)-2,3-dihydro-1H-inden-1-yl)-6-(difluoromethyl)nicotinamide]"
,,180,15.3,"Nc1ncccc1-c1nc2ccc(-n3cccn3)nc2n1-c1ccc2c(c1)CC[C@@H]2NC(=O)c1ccnc(OC2COC2)c1 [Compound 164, (S)—N-(5-(2-(2-aminopyridin-3-yl)-5-(1H-pyrazol-1-yl)-3H-imidazo[4,5-b]pyridin-3-yl)-2,3-dihydro-1H-inden-1-yl)-2-(oxetan-3-yloxy)isonicotinamide]"
